We go through 29 compounds from patent publication US12565490B2, “Inhibitors of Receptor Interacting Protein Kinase I for the treatment of disease” (Board of Regents, The University of Texas System, priority 2020, dated 2026).

A value given as a limit tells only on which side of the number the result lay.

This test deals with human monocytic cell line U937. Put plainly: Human U937 cellular necroptosis assay. It is filed as cell-based. Particulars: U-937; U937 cells stimulated with 25 ng/mL human TNFalpha and 25 μM z-VAD-FMK; 22 hr; viability by Cell Titer-Glo 2.0; read-out: hU937 IC50. How it is done: Human U937 Cellular Necroptosis Assay
The human monocytic cell line U937 (CRL-1593.2) may be purchased from ATCC. The cells are routinely maintained in RPMI-1640 Medium (Gibco, Catalog #11875-093) supplemented with 10% heat inactivated fetal bovine serum (Gibco, Catalog #16140-071), 100 units/mL penicillin and 100 μg/mL streptomycin (Gibco, Catalog #15140-122), in a humidified incubator (37° C., 5% CO2). For the assay, cells are resuspended in RPMI-1640 phenol red free Media (Gibco, Catalog #11835-030) supplemented with 10% fetal bovine serum (Sigma, Catalog #F2442), 100 units/mL penicillin and 100 ug/mL streptomycin. Cells are stimulated with 25 ng/mL human TNFalpha (Cell Sciences, Catalog #CSI15659B) and 25 μM z-VAD-FMK (R&D Systems, Catalog #FMK001) followed by seeding 5000 cells per well in a volume of 40 μL to a white, CulturPlate-384 (Perkin Elmer, Catalog #6007680). Stock solutions of the test compounds are prepared in 100% DMSO (Sigma, Catalog #D2650) and serially diluted 1:3 using 100% DMSO. Compounds are additionally diluted 1:40 in assay medium, and 10 μL/well was transferred to the plate. Following the compound addition, the plate is incubated at 37° C. and 5% CO2 for 22 hr. After 22 hr, viability is assessed with the addition of 20 μL of Cell Titer-Glo 2.0 (Promega, Catalog #G9243). The tissue culture plate is shaken on an orbital shaker at 300 RPM for 15 minutes at room temperature in the dark. Luminescence is measured using a PerkinElmer Envision™ plate reader. IC50 values are calculated using a four-parameter logistic curve fit using Genedata Screener software. Compounds disclosed herein are expected to have activity in this assay.
On the technique in general: In ATP-based viability assays light output follows the ATP content of the culture.
As usually defined, the IC50 is the concentration needed to halve the response being measured. `CN1C(=O)[C@@H](NC(=O)c2ncc(Cl)c(C3COCCO3)n2)COc2cc(Cl)cnc21` (single isomer, unassigned) [Example 163b]: the IC50 was 0.0879 µM.

Turning to `COc1cc2c(cn1)N(C)C(=O)[C@@H](NC(=O)c1ncc(C)c(-c3ccccc3)n1)CC2` (stereo in doubt) [Example 11, N-(7-methoxy-1-methyl-2-oxo-2,3,4,5-tetrahydro-1H-pyrido[3,4-b]azepin-3-yl)-5-methyl-4-phenylpyrimidine-2-carboxamide], the IC50 worked out at 0.459 µM.

On to `Cc1ccc(-c2nc(C(=O)N[C@H]3COc4cc(C#N)ccc4N(C)C3=O)ncc2C)cc1F` [Example 1, (S)—N-(8-cyano-5-methyl-4-oxo-2,3,4,5-tetrahydrobenzo[b][1,4]oxazepin-3-yl)-4-(3-fluoro-4-methylphenyl)-5-methylpyrimidine-2-carboxamide], for which the IC50 stood at 0.0124 µM.

In the case of `O=C(NC1CCc2ccccc2NC1=O)c1ncc(C2CC2)c(-c2ccccc2)n1` (centres unmarked) [Example 2, 5-cyclopropyl-N-(2-oxo-2,3,4,5-tetrahydro-1H-benzo[b]azepin-3-yl)-4-phenylpyrimidine-2-carboxamide], the IC50 stood at 0.509 µM.

`Cc1cnc(C(=O)NC2CCc3ccccc3NC2=O)nc1-c1ccccc1` (centres unmarked) [Example 3, 5-methyl-N-(2-oxo-2,3,4,5-tetrahydro-1H-benzo[b]azepin-3-yl)-4-phenylpyrimidine-2-carboxamide]: the IC50 was 0.0185 µM.

Take `O=C(NC1CCc2ccccc2NC1=O)c1nccc(-c2ccccc2)n1` (centres unmarked) [Example 4, N-(2-oxo-2,3,4,5-tetrahydro-1H-benzo[b]azepin-3-yl)-4-phenylpyrimidine-2-carboxamide]: the IC50 worked out at 2.16 µM.

Turning to `Cc1cnc(C(=O)N[C@H]2COc3cc(C#N)ccc3N(C)C2=O)nc1-c1ccccc1` [Example 5, (S)-N-(8-cyano-5-methyl-4-oxo-2,3,4,5-tetrahydro-benzo[b][1,4]oxazepin-3-yl)-5-methyl-4-phenylpyrimidine-2-carboxamide], the IC50 was found to be 0.0151 µM.

Regarding `Cc1cnc(C(=O)N[C@H]2COc3cccnc3N(C)C2=O)nc1-c1ccccc1` [Example 6, (S)-5-methyl-N-(5-methyl-4-oxo-2,3,4,5-tetrahydropyrido[3,2-b][1,4]oxazepin-3-yl)-4-phenylpyrimidine-2-carboxamide], the IC50 came out at 0.0125 µM.

As to `Cc1cnc(C(=O)NC2CCc3cc(F)cc(F)c3NC2=O)nc1-c1ccccc1` (centres unmarked) [Example 7, N-(7,9-difluoro-2-oxo-2,3,4,5-tetrahydro-1H-benzo[b]azepin-3-yl)-5-methyl-4-phenylpyrimidine-2-carboxamide], the IC50 came to 0.0222 µM.

With `O=C(NC1CCc2ccccc2NC1=O)c1nc(-c2ccccc2)c(Cl)cc1Cl` (centres unmarked) [Example 8, 3,5-dichloro-N-(2-oxo-2,3,4,5-tetrahydro-1H-benzo[b]azepin-3-yl)-6-phenylpicolinamide], the IC50 turned out to be 0.354 µM.

`Cc1cnc(C(=O)N[C@H]2CCc3ccccc3NC2=O)nc1-c1ccc(F)cc1` [Example 9, (S)-4-(4-fluorophenyl)-5-methyl-N-(2-oxo-2,3,4,5-tetrahydro-1H-benzo[b]azepin-3-yl)pyrimidine-2-carboxamide]: the IC50 turned out to be 0.0103 µM.

On to `Cc1cnc(C(=O)N[C@H]2CCc3ccccc3NC2=O)nc1-c1ccc(F)c(F)c1` [Example 10, (S)-4-(3,4-difluorophenyl)-5-methyl-N-(2-oxo-2,3,4,5-tetrahydro-1H-benzo[b]azepin-3-yl)pyrimidine-2-carboxamide], for which the 50% inhibitory concentration (IC50) was found to be 0.0154 µM.

For the compound `Cc1cnc(C(=O)N[C@H]2CCc3ccccc3NC2=O)nc1-c1cccc(F)c1` [Example 12, (S)-4-(3-fluorophenyl)-5-methyl-N-(2-oxo-2,3,4,5-tetrahydro-1H-benzo[b]azepin-3-yl)pyrimidine-2-carboxamide], the IC50 worked out at 0.0146 µM.

In the case of `Cc1ccc(-c2nc(C(=O)N[C@H]3CCc4ccccc4NC3=O)ncc2C)cc1` [Example 13, (S)-5-methyl-N-(2-oxo-2,3,4,5-tetrahydro-1H-benzo[b]azepin-3-yl)-4-(p-tolyl)pyrimidine-2-carboxamide], the IC50 was 0.0276 µM.

For `Cc1cnc(C(=O)N[C@H]2COc3cc(C#N)ccc3N(C)C2=O)nc1N1CCCCC1` [Example 14, (S)-N-(8-cyano-5-methyl-4-oxo-2,3,4,5-tetrahydro-benzo[b][1,4]oxazepin-3-yl)-5-methyl-4-(piperidin-1-yl)-pyrimidine-2-carboxamide], the IC50 turned out to be 0.119 µM.

Turning to `Cc1cnc(C(=O)NC2CCn3nc(C(F)(F)F)cc3N(C)C2=O)nc1-c1ccccc1` (centres unmarked) [Example 15, 5-methyl-N-(4-methyl-5-oxo-2-(trifluoromethyl)-5,6,7,8-tetrahydro-4H-pyrazolo[1,5-a][1,3]diazepin-6-yl)-4-phenyl-pyrimidine-2-carboxamide], the IC50 came to 0.498 µM.

Consider `Cc1cnc(C(=O)N[C@@H]2C(=O)N(C)c3ncccc3O[C@@H]2C)nc1-c1ccccc1` [Example 16, N-((2R,3S)-2,5-dimethyl-4-oxo-2,3,4,5-tetrahydropyrido[3,2-b][1,4]oxazepin-3-yl)-5-methyl-4-phenylpyrimidine-2-carboxamide], for which the IC50 amounted to 0.0361 µM.

Turning to `Cc1cnc(C(=O)N[C@H]2COc3cc(C#N)ccc3N(C)C2=O)nc1-c1ccc(F)c(F)c1` [Example 17, (S)-N-(8-cyano-5-methyl-4-oxo-2,3,4,5-tetrahydro-benzo[b][1,4]oxazepin-3-yl)-4-(3,4-difluorophenyl)-5-methyl-pyrimidine-2-carboxamide], the IC50 was 0.0408 µM.

As to `Cc1cnc(C(=O)Nc2cccc(Cl)c2F)nc1-c1ccccc1` [Example 18, N-(3-chloro-2-fluorophenyl)-5-methyl-4-phenylpyrimidine-2-carboxamide], the IC50 came out at 1.89 µM.

With `Cc1cnc(C(=O)N[C@H]2COc3cc(C#N)ccc3N(C)C2=O)nc1N1CCC(F)(F)CC1` [Example 19, (S)-N-(8-cyano-5-methyl-4-oxo-2,3,4,5-tetrahydro-benzo[b][1,4]oxazepin-3-yl)-4-(4,4-difluoropiperidin-1-yl)-5-methylpyrimidine-2-carboxamide], the IC50 turned out to be 0.748 µM.

As for `Cc1cnc(C(=O)N[C@H]2COc3cc(C#N)ccc3N(C)C2=O)nc1N1CCCC1` [Example 20, (S)-N-(8-cyano-5-methyl-4-oxo-2,3,4,5-tetrahydro-benzo[b][1,4]oxazepin-3-yl)-5-methyl-4-(pyrrolidin-1-yl)-pyrimidine-2-carboxamide], the IC50 was found to be 0.482 µM.

With `Cc1cnc(C(=O)N[C@H]2COc3cccnc3N(C)C2=O)nc1-c1ccc(F)c(F)c1` [Example 21, (S)-4-(3,4-difluorophenyl)-5-methyl-N-(5-methyl-4-oxo-2,3,4,5-tetrahydropyrido[3,2-b][1,4]oxazepin-3-yl)pyrimidine-2-carboxamide], the IC50 stood at 0.0148 µM.

With `Cc1cnc(C(=O)N[C@H]2COc3ccc(Br)cc3N(C)C2=O)nc1-c1ccccc1` [Example 22, (S)-N-(7-bromo-5-methyl-4-oxo-2,3,4,5-tetrahydro-benzo[b][1,4]oxazepin-3-yl)-5-methyl-4-phenylpyrimidine-2-carboxamide], the IC50 came to 0.0121 µM.

`Cc1cnc(C(=O)N[C@H]2COc3cc(C#N)ccc3N(C)C2=O)nc1N1CCC(F)(F)C1` [Example 23, (S)-N-(8-cyano-5-methyl-4-oxo-2,3,4,5-tetrahydro-benzo[b][1,4]oxazepin-3-yl)-4-(3,3-difluoropyrrolidin-1-yl)-5-methylpyrimidine-2-carboxamide]: the IC50 was determined as 0.83 µM.

Turning to `CN1C(=O)[C@@H](NC(=O)c2ncc(Cl)c(-c3ccccc3)n2)COc2cc(C#N)ccc21` [Example 24, (S)-5-chloro-N-(8-cyano-5-methyl-4-oxo-2,3,4,5-tetrahydro-benzo[b][1,4]oxazepin-3-yl)-4-phenylpyrimidine-2-carboxamide], the IC50 stood at 0.0192 µM.

Take `Cc1ccc(C(=O)Nc2cccc(Cl)c2F)nc1Br` [Example 25, 6-bromo-N-(3-chloro-2-fluorophenyl)-5-methyl-picolinamide]: the IC50 was at least 10 µM.

`Cc1cnc(C(=O)N[C@H]2COc3ccc(N4CC5(CCOCC5)C4)cc3N(C)C2=O)nc1-c1ccccc1` [Example 26, (S)-5-methyl-N-(5-methyl-4-oxo-7-(7-oxa-2-azaspiro[3.5]nonan-2-yl)-2,3,4,5-tetrahydrobenzo[b]-[1,4]oxazepin-3-yl)-4-phenyl-pyrimidine-2-carboxamide]: the IC50 is 0.0146 µM.

`CN1C(=O)[C@@H](NC(=O)c2ncc(Cl)c(-c3ccccc3)n2)COc2cccnc21` [Example 27, (S)-5-chloro-N-(5-methyl-4-oxo-2,3,4,5-tetrahydropyrido[3,2-b][1,4]oxazepin-3-yl)-4-phenylpyrimidine-2-carboxamide]: the IC50 worked out at 0.0267 µM.

As for `Cc1cnc(C(=O)N[C@H]2COc3cc(Br)cnc3N(C)C2=O)nc1-c1ccccc1` [Example 29, (S)-N-(8-bromo-5-methyl-4-oxo-2,3,4,5-tetrahydropyrido[3,2-b][1,4]oxazepin-3-yl)-5-methyl-4-phenylpyrimidine-2-carboxamide], the IC50 came to 0.0117 µM.
